Experimental data as given in patent publication US5932707A, “Thioether-containing metal chelating compounds” (Nycomed Amersham plc, priority 1993, dated 1999).
Each block holds one molecule with its values, some of them ahead of it.

What was measured:
[1] = Stability when handled in air; assay type: physicochemical
human erythrocyte ghosts = experiment: Red cell ghost (RCG) uptake; assay type: in vitro ADME; conditions: for RCG uptake: technetium complex, human erythrocyte ghosts
Experimental: RCG uptake is determined by incubation of a fixed amount of labelled complex with a range of ghost concentrations. The percentage of labelled complex […] is calculated for each ghost concentration to yield a single uptake figure expressed as %/mg protein.

[2] = Human plasma protein binding of technetium complexes (ultrafiltration); assay type: in vitro ADME; conditions: technetium complex, read-out: PPB % bound (converted)
Experimental: Human plasma protein binding was determined by ultrafiltration^(9), such that the percentage of complex bound is an indicator of the affinity of binding.
The plasma protein binding figure obtained for a given compound is highly dependent on the method of determination used^(10). Thus equilibrium dialysis measurement may lead to higher PPB figures than those obtained via ultrafiltration due to longer incubation times. Use of serum rather than plasma may also underestimate the true extent of binding. There are also significant interspecies differences.

[3] = neutral lipophilic technetium complex; cited from earlier work
[4] = tested on: V79-379A Chinese hamster cells; experiment: Hypoxic and oxic binding of 99mTc labelled compounds to cells in vitro; assay type: cell-based; conditions: 99mTc complex; for Oxic SN (supernatant): air +5% CO2; for Oxic pellet: air +5% CO2, 37° C.; for Oxic pellet / Hypoxic pellet: 10^6 cells per pellet; for Hypoxic SN (supernatant): nitrogen +5% CO2; for Hypoxic pellet: nitrogen +5% CO2, 37° C.
Experimental: V79-379A Chinese hamster cells were harvested from exponential suspension culture and resuspended at 1.1×10^6 cells cm^-3 in Bagle's MEM. 20 cm^3 of cells were transferred to small spinner vessels and gassed with either air +5% CO2 (oxic) or nitrogen +5% CO2 (Hypoxic) at 37° C. After 30 minutes, between 0.5 cm^3 and 1 cm^3 of ^99m Tc labelled compound was added. At timed intervals 1 cm^3 of cell suspension was withdrawn from each flask and chilled on ice in small polystyrene centrifuge tubes. The cells were centrifuged and washed three times in ice-cold medium (Eagle's MEM) to give constant counts in the cell pellet. The pellets were counted in LKB 1282 Compugamma counter. The initial supernatant was diluted 1 in 100 with saline and 1 cm^3 was counted. All samples were counted at the end of the incubation period and counts have been corrected for decay during counting but not for decay during incubation.
Attempts were made to decrease the amount of non-specific binding by incubating the cell samples in a large volume of medium for one hour at 37° C. under oxic conditions.

Structure (SMILES): CC(=O)NCCNC(=O)CSCCS [HL 15D, N-(2-Acetylaminoethyl)-2-mercaptoethylthioacetamide]
- tendency to oxidise to the corresponding disulphide [1]: tended to oxidise to the corresponding disulphide if handled in air

Structure (SMILES): CC(=O)NCCNC(=O)CSCCSC1CCCCO1 (stereo not drawn) [HL15P, N-(2-Acetylaminoethyl)-2-(tetrahydropyran-2-ylthio)ethylthioacetamide]
- RCG uptake (human erythrocyte ghosts): 1.6 %/mg protein
- fraction unbound [2]: 1

Structure (SMILES): CC(C)(S)CNCCNCC(C)(C)S [BAT, reference compound]
- blood-brain barrier passage [3]: can cross the blood-brain barrier
- fraction unbound [2]: 0.38

Structure (SMILES): CC(=O)NCCNC(=O)CCSCCSC1CCCCO1 (stereo not drawn) [HL49, N-(2-acetylaminoethyl)-3-[2-(tetrahydropyran-2-ylthio)ethylthio]propionamide]
- RCG uptake (human erythrocyte ghosts): 3.6 %/mg protein
- fraction unbound [2]: 0.82

Structure (SMILES): CC(=O)NCSCC(NCC(O)Cn1ccnc1[N+](=O)[O-])C(=O)NCC(=O)NCCN(C)C (stereo not drawn) [HL11P]
- Hypoxic:oxic ratio ([4]; 0.5 hrs): 5.79
- Oxic SN (supernatant) ([4]; 0.5 hrs): 25.1 cpm/ml (10^-7)
- Oxic pellet ([4]; 0.5 hrs): 0.42 cpm (×10^-5)
- Hypoxic SN (supernatant) ([4]; 0.5 hrs): 22.2 cpm/ml (10^-7)
- Hypoxic pellet ([4]; 0.5 hrs): 2.15 cpm (×10^-5)
- Hypoxic:oxic ratio ([4]; 1.0 hrs): 2.91
- Oxic SN (supernatant) ([4]; 1.0 hrs): 24.9 cpm/ml (10^-7)
- Oxic pellet ([4]; 1.0 hrs): 0.71 cpm (×10^-5)
- Hypoxic SN (supernatant) ([4]; 1.0 hrs): 22.3 cpm/ml (10^-7)
- Hypoxic pellet ([4]; 1.0 hrs): 1.85 cpm (×10^-5)
- Hypoxic:oxic ratio ([4]; 2.0 hrs): 3.86
- Oxic SN (supernatant) ([4]; 2.0 hrs): 25.5 cpm/ml (10^-7)
- Oxic pellet ([4]; 2.0 hrs): 0.99 cpm (×10^-5)
- Hypoxic SN (supernatant) ([4]; 2.0 hrs): 22.2 cpm/ml (10^-7)
- Hypoxic pellet ([4]; 2.0 hrs): 3.33 cpm (×10^-5)
- Hypoxic:oxic ratio ([4]; 3.0 hrs): 3.60
- Oxic SN (supernatant) ([4]; 3.0 hrs): 25.6 cpm/ml (10^-7)
- Oxic pellet ([4]; 3.0 hrs): 1.18 cpm (×10^-5)
- Hypoxic SN (supernatant) ([4]; 3.0 hrs): 22.4 cpm/ml (10^-7)
- Hypoxic pellet ([4]; 3.0 hrs): 3.72 cpm (×10^-5)
- Hypoxic:oxic ratio ([4]; 4.0 hrs): 5.07
- Oxic SN (supernatant) ([4]; 4.0 hrs): 26.0 cpm/ml (10^-7)
- Oxic pellet ([4]; 4.0 hrs): 1.40 cpm (×10^-5)
- Hypoxic SN (supernatant) ([4]; 4.0 hrs): 22.8 cpm/ml (10^-7)
- Hypoxic pellet ([4]; 4.0 hrs): 6.22 cpm (×10^-5)
- Hypoxic:oxic ratio ([4]; 5.0 hrs): 3.26
- Oxic SN (supernatant) ([4]; 5.0 hrs): 25.7 cpm/ml (10^-7)
- Oxic pellet ([4]; 5.0 hrs): 1.63 cpm (×10^-5)
- Hypoxic SN (supernatant) ([4]; 5.0 hrs): 22.7 cpm/ml (10^-7)
- Hypoxic pellet ([4]; 5.0 hrs): 4.70 cpm (×10^-5)

Other lines, results leading:

- RCG uptake (in words) (human erythrocyte ghosts; 99mTc complex): excluded from the ghosts
Structure (SMILES): O=C([O-])CN(CCN(CC(=O)[O-])CC(=O)[O-])CCN(CC(=O)[O-])CC(=O)[O-].[99Tc+4] [^99m Tc-DTPA, reference compound]

- RCG uptake (human erythrocyte ghosts): 6.7 %/mg protein
- fraction unbound [2]: 0.25
Structure (SMILES): CC(=NO)C(C)(C)NCCCNC(C)(C)C(C)=NO [PnAO, reference compound]

- RCG uptake (human erythrocyte ghosts): 1.1 %/mg protein
- fraction unbound [2]: 1
Structure (SMILES): CC(=O)NCCCNC(=O)CSCCSC1CCCCO1 (stereo not drawn) [HL60P, N-(3-acetylamino)propyl-2-(tetrahydropyran-2-ylthio)ethylthioacetamide]
